Reference: the supplement of paper PMC10307832

Columns and labels:
Experiment in all cases: relative viability (nuclei count vs DMSO), 5 days (fraction); higher = more cells survive
Entinostat + Alpelisib = compound: Nc1ccccc1NC(=O)c1ccc(CNC(=O)OCc2cccnc2)cc1 [Entinostat] + Cc1nc(NC(=O)N2CCC[C@H]2C(N)=O)sc1-c1ccnc(C(C)(C)C(F)(F)F)c1 [Alpelisib] (partner 2 µM)
Procedure, shortened: (§1)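 For relative viability, nuclei counts in treated wells were divided by those in vehicle wells. Lung cancer cell lines had been pin-tool dosed in 1536-well plates the day after seeding and cultured for 5 days, then fixed and stained in one step (final 0.05% Triton X-100, 1% formaldehyde, 1 ug/ml Hoechst) and imaged at 4×. Doses were one drug alone or a fixed anchor-drug dose plus five library-drug doses (not always all listed) in √10 steps, and values are duplicate-plate medians.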

SGI-1776 + Pictilisib = compound: CN1CCC(CNc2ccc3ncc(-c4cccc(OC(F)(F)F)c4)n3n2)CC1 [SGI-1776] + CS(=O)(=O)N1CCN(Cc2cc3nc(-c4cccc5[nH]ncc45)nc(N4CCOCC4)c3s2)CC1 [Pictilisib] (partner 1 µM)
Procedure, shortened: as §1

SGI-1776 + Foretinib = compound: CN1CCC(CNc2ccc3ncc(-c4cccc(OC(F)(F)F)c4)n3n2)CC1 [SGI-1776] + COc1cc2c(Oc3ccc(NC(=O)C4(C(=O)Nc5ccc(F)cc5)CC4)cc3F)ccnc2cc1OCCCN1CCOCC1 [Foretinib] (partner 0.25 µM)
Procedure, shortened: as §1

[1] = compound: C1COCCN1C2=NC(=NC3=C2OC4=C3C=CC=N4)C5=CC(=CC=C5)NC(=O)C6=CN=C(C=C6)N + Nc1nc2[nH]cc(CCc3ccc(C(=O)N[C@@H](CCC(=O)O)C(=O)O)cc3)c2c(=O)[nH]1 [Pemetrexed] (partner 0.2 µM)
Procedure, shortened: as §1

Row | Cell Line | relative viability (Entinostat + Alpelisib; first compound 0.02 µM) | relative viability (Entinostat + Alpelisib; first compound 0.06325 µM) | relative viability (Entinostat + Alpelisib; first compound 0.2 µM) | relative viability (Entinostat + Alpelisib; first compound 0.6325 µM) | relative viability (Entinostat + Alpelisib; first compound 2 µM) | relative viability (SGI-1776 + Pictilisib; first compound 0.08 µM) | relative viability (SGI-1776 + Pictilisib; first compound 0.8 µM) | relative viability (SGI-1776 + Pictilisib; first compound 2.53 µM) | relative viability (SGI-1776 + Pictilisib; first compound 8 µM) | relative viability (SGI-1776 + Foretinib; first compound 0.08 µM) | relative viability (SGI-1776 + Foretinib; first compound 0.8 µM) | relative viability (SGI-1776 + Foretinib; first compound 2.53 µM) | relative viability (SGI-1776 + Foretinib; first compound 8 µM) | relative viability ([1]; first compound 0.02 µM) | relative viability ([1]; first compound 0.06325 µM) | relative viability ([1]; first compound 0.2 µM) | relative viability ([1]; first compound 0.6325 µM) | relative viability ([1]; first compound 2 µM)
1 | NCI-H322M | 0.817 | 0.826 | 0.738 | 0.866 | 0.675 | 0.571 | 0.483 | 0.473 | 0.445 | 0.93 | 1.07 | 0.859 | 0.683 | 0.685 | 0.588 | 0.565 | 0.628 | 0.621
2 | NCI-H358 | 0.807 | 0.962 | 0.965 | 0.551 | 0.284 | 0.37 | 0.375 | 0.334 | 0.253 | 0.698 | 0.553 | 0.467 | 0.198 | 0.176 | 0.182 | 0.137 | 0.222 | 0.135
3 | NCI-H441 | 0.577 | 0.665 | 0.608 | 0.22 | 0.18 | 0.399 | 0.62 | 0.564 | 0.299 | 0.992 | 0.925 | 1.17 | 0.728 | 0.278 | 0.251 | 0.248 | 0.245 | 0.251
4 | NCI-H460 | 0.491 | 0.463 | 0.285 | 0.0307 | 0.0143 | 0.376 | 0.343 | 0.42 | 0.289 | 1.01 | 0.947 | 0.998 | 0.716 | 0.0585 | 0.0645 | 0.0766 | 0.0835 | 0.0565
5 | NCI-H520 | 0.836 | 0.848 | 0.963 | 0.764 | 0.451 | 0.319 | 0.323 | 0.225 | 0.204 | 0.826 | 0.895 | 0.783 | 0.51 | 0.653 | 0.752 | 0.655 | 0.685 | 0.351
6 | NCI-H596 | 0.533 | 0.496 | 0.272 | 0.411 | 0.356 | 0.43 | 0.383 | 0.365 | 0.298 | 0.808 | 0.748 | 0.79 | 1.05 | 0.569 | 0.488 | 0.523 | 0.467 | 0.393
7 | NCI-H647 | 1.09 | 1.28 | 1.06 | 0.419 | 0.11 | 0.474 | 0.434 | 0.247 | 0.219 | 1.22 | 1.24 | 1.18 | 1.15 | 0.175 | 0.155 | 0.141 | 0.138 | 0.114
8 | NCI-H650 | 1.18 | 1.13 | 1.03 | 0.763 | 0.339 | 0.958 | 0.731 | 0.868 | 0.644 | 1.09 | 1.03 | 1.02 | 0.936 | 0.95 | 0.918 | 0.945 | 0.835 | 0.782
9 | NCI-H661 | 0.733 | 0.735 | 0.68 | 0.856 | 0.683 | 0.526 | 0.429 | 0.363 | 0.317 | 1.03 | 1.04 | 1.07 | 1.03 | 0.923 | 0.918 | 0.889 | 0.921 | 0.602
10 | NCI-H838 | 1.03 | 1.15 | 1.13 | 0.72 | 0.301 | 0.446 | 0.398 | 0.414 | 0.277 | 1.08 | 1.05 | 1.05 | 0.669 | 0.257 | 0.246 | 0.25 | 0.242 | 0.167
11 | NCI-H1355 | 0.83 | 0.806 | 0.641 | 0.514 | 0.426 | 0.488 | 0.494 | 0.439 | 0.364 | 0.953 | 1.02 | 0.958 | 0.919 | 1.04 | 1.05 | 1.01 | 0.944 | 0.924
12 | NCI-H1395 | 1.09 | 1.22 | 1.02 | 0.81 | 0.522 | 0.591 | 0.64 | 0.542 | 0.494 | 1.05 | 0.975 | 1.01 | 0.857 | 0.941 | 0.87 | 0.735 | 0.643 | 0.692
13 | NCI-H1437 | 0.822 | 0.594 | 0.388 | 0.167 | 0.138 | 0.435 | 0.517 | 0.367 | 0.219 | 1.23 | 1.29 | 1.37 | 1.17 | 0.339 | 0.311 | 0.308 | 0.366 | 0.254
14 | NCI-H1563 | 0.908 | 0.883 | 0.826 | 0.807 | 0.636 | 0.707 | 0.588 | 0.583 | 0.467 | 0.949 | 0.952 | 0.92 | 0.888 | 0.795 | 0.699 | 0.767 | 0.694 | 0.685
15 | NCI-H1651 | 1.08 | 0.979 | 0.994 | 0.748 | 0.372 | 0.671 | 0.559 | 0.421 | 0.432 | 0.787 | 0.75 | 0.985 | 0.794 | 0.615 | 0.581 | 0.572 | 0.599 | 0.31
16 | NCI-H1666 | 1.21 | 0.856 | 0.872 | 0.318 | 0.322 | 0.568 | 0.403 | 0.404 | 0.313 | 0.975 | 0.956 | 0.948 | 0.914 | 0.861 | 0.812 | 0.699 | 0.749 | 0.546
